System: strain NA45-3 (ATCC 209681)
Assay: Effect of magnesium on AA production from substrates by strain NA45-3
Format: cell-based, Prototheca moriformis
Settings: 24 hours; for conversion to AA, effect of magnesium in the resuspension buffer: NA45-3 grown Mg-limited, substrate 20 g/L

SMILES	AA accumulation by cells grown under magnesium-sufficient conditions (NA45-3, substrate 20 g/L, regardless of magnesium in resuspension broth)	conversion to AA, effect of magnesium in the resuspension buffer
O=C1O[C@H]([C@@H](O)CO)[C@@H](O)[C@@H]1O [L-galactono-γ-lactone]	enhanced	unaffected
O=C[C@@H](O)[C@@H](O)[C@H](O)[C@H](O)CO [D-mannose]		unaffected

— patent publication US20020012979A1, “VITAMIN C PRODUCTION IN MICROORGANISMS AND PLANTS” (priority 1998, published 2002)
